Test results: ChEMBL document CHEMBL1201862, “PubChem BioAssay data set” (2004)
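Interpolation was linear, between the two tested concentrations surrounding the appropriate level; five concentrations were tested over 48 hours in 96-well plates. GI50 marks 50% less growth.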 The source made the active and inactive calls. Rule as the data show it: active = GI50 up to about 1.1 µM and inactive = higher.

Key:
Assay in all cases: inhibition of tumour cell growth, NCI panel, 48 h
[1] = system: 786-0
[2] = system: BT-549
[3] = system: DLD-1
[4] = system: DMS-114
[5] = system: KM-20L2
[6] = system: LXFL 529
[7] = system: SNB-78
[8] = system: RXF 631
[9] = system: XF498

Measured: GI50

CCCn1cnc2c(SCc3ccc(Cl)cc3)nc(N)nc21
inactive: [1] 29.6 µM | [2] 29.1 µM

COC(C/C=C\C=C\CC/C=C/CC(C)/C=C/C(=C\C(=O)O)CC(=O)O)/C(C)=C\C=C(/C)C(=O)O (stereo not given)
inactive: [2] > 100 µM

Cc1ccc(/N=N/NCCCCN/N=N/c2ccc(C)cc2)cc1
inactive: [2] > 100 µM

Cc1cn(C2CC(O)C(Cn3nncc3Cn3ncc(=O)[nH]c3=O)O2)c(=O)[nH]c1=O (stereo not given)
inactive: [2] > 100 µM

CC(=O)Nc1ccc2nc(N)n[n+]([O-])c2c1
inactive: [1] > 100 µM | [2] > 100 µM

CCOC(=O)/C=C1\CCCC12OCCO2
inactive: [1] > 100 µM | [3] 89.3 µM | [4] 85.5 µM | [5] > 100 µM | [6] > 100 µM | [7] > 100 µM

COc1cc(/C=C2/C(=O)N(C(=O)OCC(C)C)C(Cc3cc(OC)c(OC)c(C)c3OC)C(=O)N2Cc2ccccc2)c(OC)c(C)c1OC (stereo not given)
inactive: [1] > 100 µM | [3] 84.3 µM | [4] 23.1 µM | [5] > 100 µM | [6] 5.57 µM | [8] > 100 µM

CC1CC[C@@]2(OC1)OC1C[C@H]3[C@@H]4CC=C5CC(OC6OC(CO)C(OC7OC(CO)C(O)C(OC8OCC(O)C(O)C8O)C7OC7OC(CO)C(O)C(O)C7O)C(O)C6O)CCC5(C)[C@H]4CCC3(C)C1[C@@H]2C (stereo not given in full)
inactive: [1] 5.9 µM | [2] 4.38 µM

COC(c1ccc(C(C)(C)C)cc1)(c1ccc(C(C)(C)C)cc1)c1cc(C(O)(c2cc(C(OC)(c3ccc(C(C)(C)C)cc3)c3ccc(C(C)(C)C)cc3)c(C)cc2C)c2cc(C(OC)(c3ccc(C(C)(C)C)cc3)c3ccc(C(C)(C)C)cc3)c(C)cc2C)c(C)cc1C
inactive: [2] > 100 µM

O=c1n(CC2CO2)c2ccccc2n1CC1CS1 (stereo not given)
inactive: [4] 77.8 µM | [5] > 100 µM | [6] 88.9 µM | [9] > 100 µM

CC(=O)OCCOCNC(=S)N/N=C/c1cc(Br)cs1
inactive: [1] > 100 µM | [3] > 100 µM | [4] > 100 µM | [5] > 100 µM | [6] > 100 µM | [8] > 100 µM | [7] > 100 µM | [9] > 100 µM

COc1ccc2c(c1)C1=NCCN(CCO)c3ccc([N+](=O)[O-])c(c31)N2
active: [1] 0.22 µM

NC1CCC2(O)c3ccccc3C2C1 (stereo not given)
inactive: [1] > 100 µM | [4] > 100 µM | [5] > 100 µM | [6] > 100 µM | [7] > 100 µM | [9] > 100 µM

Cc1ccc(/N=N/c2c(C)nn(-c3ccccc3)c2-c2ccccc2)c(Br)c1
inactive: [1] 32.6 µM | [3] 57.4 µM | [5] > 100 µM | [6] 87.9 µM | [8] 34.4 µM

CC1ON2CCCC2[C@H]1C(=O)N1C2CC3CCC2(CS1(=O)=O)C3(C)C (stereo not given in full)
inactive: [1] > 100 µM | [2] > 100 µM

CCOc1ccc(C(C)c2cc3c(cc2OC)OCO3)cc1 (stereo not given)
active: [3] 0.377 µM | [4] 0.214 µM | [5] 0.199 µM | [6] 0.429 µM | [9] 0.256 µM
inactive: [7] 3.2 µM

C=C(C)C1CC2=C(O1)C(=O)c1ccccc1C2=O (stereo not drawn) [DEHYDROISO-ALPHA-LAPACHONE]
inactive: [3] 20.8 µM | [4] 16 µM | [6] 17.2 µM | [8] 20.3 µM | [7] 20.3 µM | [9] 17.9 µM
